Measurements: US12098176B2, “Keratin BD-4, preparation method, and pharmaceutical composition and use thereof” (Institute of Materia Medica, Chinese Academy of Medical …, priority 2019, dated 2024)
Structures can show the parent of a compound that is named as a salt. Marks after values point to notes of the source that are not given here.

What was measured:
[1] = system: mice cough induced by ammonia water; assay: Antitussive test, cough induced by ammonia water in mice; assay type: in vivo, mouse
Procedure: Experimental example 6 The effect of protein BD-4 (Example 4 protein) on the antitussive effect of the cough induced by ammonia water in mice. Animals: male ICR mice; Drugs and reagents: dextromethorphan hydrobromide, ammonia, 0.2% CMC-Na, protein BD-4; Apparatus: Compressed nebulizer (403T type), balance (XS105DU type). Experiment Grouping: • Solvent control group; • Dextromethorphan 15 mg/kg group; • Protein BD-4, 20 mg/kg group, 50 mg/kg group. Method: Model Preparation and Administration:
Dextromethorphan and different doses of protein BD-4 (administration volume 10 ml/kg) were given orally in groups, and the solvent control group was given the same volume of distilled water. One hour later, it was put into a sealed box and atomized 10% ammonia water for 10 seconds, and then observed and recorded the incubation period of cough in mice and the number of coughs in 2 minutes.
Record the time point of oral administration, the time point of atomization experiment, the incubation period of mice cough and the number of coughs within 2 minutes, respectively. The incubation period of cough refers to the number of seconds from the start of the atomization of ammonia to the occurrence of cough. The performance of coughing in mice is based on contraction of their abdominal muscles (breast contraction) and opening their mouths at the same time. Calculate the mean and standard error of each group of data, use TTEST to compare the model group with other groups, and P<0.05 is considered as a significant difference.

[2] = system: PLO-induced epilepsy in mice; assay: Pilocarpine (PLO) induced convulsive epilepsy in mice; assay type: in vivo, mouse; conditions: Diazepam 2 mg/kg
Procedure: Experimental example 3 The pharmacodynamic test of protein BD-4 (Example 4 protein) on convulsive epilepsy in mice caused by the convulsion agent Pilocarpine (PLO)
Model group: • Diazepam (Diazepam) 2 mg/kg group; • Protein BD-4, 50 mg/kg group, 200 mg/kg group. Method: Model Preparation and Administration:
The drug was administered once in the afternoon the day before modeling, PLO-225 mg/kg (modeling agent) was injected intraperitoneally 1 hour after the test drug was given to the stomach on the day of modeling. And positive drug can be administered once 20 minutes before modeling. Observe for 30 minutes after PLO injection.
Observation indicators: 1) Seizure situation: the time of seizures from grade II to grade IV; 2) the time to death.
Attack level: Refer to Racine grading standard: Level 0: No response; Grade I: manifested as twitching of facial muscles or the corners of the mouth; Level II: can nod; Level III: Twitching of one limb; Grade IV: rigidity or body twitching; Grade V: generalized epilepsy (generalized tonic seizures).
Count the number of grade IV seizures and deaths in each group of mice in the experiment; Level II, III and IV incubation period. […] Chi-square test was used for statistics of the number of cases. The mean value and standard error of the incubation period were calculated, and TTEST was used to compare the model group with other groups. P<0.05 was considered as a significant difference.

[3] = system: PTZ-induced epilepsy in mice; assay: Pentylenetetrazole (PTZ) induced epilepsy in mice; assay type: in vivo, mouse; conditions: Retigabine 60 mg/kg
Procedure: Experiment Grouping: • Model group; • Retigabine 60 mg/kg group; • Protein BD-4, 50 mg/kg group, 200 mg/kg group; Method: Model Preparation and Administration:
Administer once in the afternoon the day before modeling, On the day of modeling, intraperitoneal injection of PTZ-65 mg/kg (modeling agent) 1 hour after gavage of the test drug, the positive drug can be administered once half an hour before modeling. Continue to observe for 15 minutes after injection of PTZ.
Observation index: 1) Seizure condition: Onset time of grade III to grade VI; 2) Death situation
Onset level: Refer to Racine grading standard: Level 0: No response; Grade I: manifested as twitching of facial muscles or the corners of the mouth; Level II: Can nod; Grade III: twitching of one limb; Grade IV: Rigidity or body twitching; Grade V: Generalized epilepsy (Generalized tonic seizures).
Count the number of seizures and deaths in each group of mice in the experiment; Level III and IV incubation period. The incubation period of mice that have not attacked to grade IV is recorded as the maximum of 900 seconds. Chi-square test was used for statistics of the number of cases. Calculate the mean and standard error of the incubation period. Use TTEST to compare the model group with other groups, and P<0.05 is considered as a significant difference.

[4] = system: lipopolysaccharide (LPS) induced fever in rats; assay: Lipopolysaccharide (LPS) induced fever in SD rats; assay type: in vivo, rat
Procedure: Experimental example 2 The pharmacodynamic test of protein BD-4 (Example 4 protein) on lipopolysaccharide (LPS) induced fever in SD rats.
Experiment Grouping: • Model group: lipopolysaccharide fever model; • Positive control group: Aspirin 300 mg/kg group, • Protein BD-4, 10 mg/kg group, 50 mg/kg group. Method: the method of intraperitoneal injection of Lipopolysaccharide to create fever model in rats.
(§1) Preparation of experimental animals: After the experimental animals adapt to the experimental environment (temperature 22° C.±2° C., relative humidity 50%±2%) for 1 day. Pre-adaptation to measure rectal temperature at 8:00 and 15:00, Rats were fasted and water was taken freely 12 h before experiment. before the experiment, let the animal to empty its feces before measuring the rectal temperature. Apply petroleum jelly to the electronic thermometer probe before each temperature measurement. Insert the rat rectum 2 cm (can be marked at 2 cm to ensure that the depth of each insertion is consistent), and record the body temperature after the reading is stable.
Intraperitoneal injection of lipopolysaccharide to replicate rat fever model: The body temperature of the rats was measured before modeling. Qualified rats with a body temperature of 36.2-37.3° C. were selected and randomly divided into groups with 8 rats in each group. After oral administration of aspirin and different doses of protein BD-4, lipopolysaccharide (20 μg/kg, 2 ml/kg) was injected intraperitoneally immediately, and the normal control group was injected intraperitoneally with an equal volume of normal saline. the rats' body temperature was monitored after 2 hours for a total of 8 hours.
(§2) According to the body temperature measured at each time point on the day of the experiment, calculate the mean, standard deviation and standard error of the body temperature of each group of rats. The data of each group was compared with TTEST, and P<0.05 was considered as a significant difference.

[5] = system: yeast-induced fever model in rats; assay: Yeast-induced fever model in SD rats; assay type: in vivo, rat
Procedure: Experimental example 1 The pharmacodynamic test of protein BD-4 (the protein in Example 4) on the fever model of SD rats induced by yeast
• Normal control group; • Model group: yeast fever model; • Positive control group: Aspirin 300 mg/kg group; • Protein BD-4, 10 mg/kg group, 50 mg/kg group. Method:
as §1, with “experiment.” for “experiment. before the experiment,”
Subcutaneous injection of dry yeast to replicate rat fever model: The body temperature of the rats was measured before modeling. Qualified rats with a body temperature of 36.2-37.3° C. were selected and randomly divided into groups with 8 rats in each group. After oral administration of aspirin and different doses of protein BD-4, 20% yeast suspension (10 ml/kg) was injected subcutaneously immediately, and the normal control group was injected intraperitoneally with an equal volume of normal saline. the rats' body temperature was monitored after 2 hours for a total of 8 hours.
as §2

[6] = system: acetic acid writhing of ICR mice; assay: Acetic acid writhing test in ICR mice; assay type: in vivo, mouse
Procedure: Experimental example 7 The pharmacodynamic test of protein BD-4 (Example 4 protein) on acetic acid writhing in ICR mice. Animals: male ICR mice; Drugs and reagents: aspirin, physiological saline, glacial acetic acid, protein BD-4. Experiment Grouping:
One day after the experimental animals adapt to the environment, Aspirin 300 mg/kg, protein BD-4 50 mg/kg, 200 mg/kg were given orally one hour in advance, and the administration volume was 10 ml/kg; Then, 0.6% acetic acid solution was injected into the abdominal cavity, and the latency period (seconds) and frequency of writhing in the animal was observed within 15 minutes.
Calculate the mean and standard error of the data in each group. Compared with the model group by TTEST, P<0.05 was considered as statistically different.
0.6% acetic acid solution was injected into the abdominal cavity of mice, which caused deep and large area and long-term painful stimulation, causing the mice to writhe (the abdomen was contracted into an “S” shape, the trunk and hind legs were stretched, the buttocks were raised and the hips Row). The incubation time and the number of times the mice began to writhe were used as the pain response index to determine whether the test sample had analgesic effect. […] Compared with the model group, P<0.05, which is statistically significant.

[7] = dextromethorphan 15 mg/kg, P<0.05
[8] = aspirin 300 mg/kg oral, 0.6% acetic acid i.p., within 15 minutes

COc1ccc2c(c1)[C@]13CCCC[C@@H]1[C@H](C2)N(C)CC3 [Dextromethorphan, dextromethorphan hydrobromide, reference compound]
Incubation period ([1]; Dextromethorphan 15 mg/kg oral, cough latency, X ± SEM): 39.2 ± 2.8 s
Number of coughs ([1]; Dextromethorphan 15 mg/kg oral, within 2 minutes, X ± SEM): 40.2 ± 3.5
Cough incubation period vs solvent control group [1, 7]: significant improvement
Number of coughs vs solvent control group [1, 7]: significant improvement

CN1C(=O)CN=C(c2ccccc2)c2cc(Cl)ccc21 [Diazepam, reference compound]
Grade IV seizure rate ([2]; 10 mice, PLO 225 mg/kg i.p.): 0**
mortality rate ([2]; 10 mice, PLO 225 mg/kg i.p.): 0
Level II onset incubation period ([2]; mean ± SEM): 118 ± 9 s
Level III onset incubation period ([2]; mean ± SEM): 172 ± 13 s
Level IV onset incubation period ([2]; mean ± SEM, no grade IV attack recorded as 1800 s): 1800 ± 0 s
Number of deaths ([2]; of 10 mice, PLO 225 mg/kg i.p.): 0
Number of Grade IV cases ([2]; of 10 mice, PLO 225 mg/kg i.p., 30 min observation): 0**

CCOC(=O)Nc1ccc(NCc2ccc(F)cc2)cc1N [Retigabine, reference compound]
Grade IV seizure rate ([3]; 10 mice, PTZ 65 mg/kg i.p.): 10%**
mortality rate ([3]; 10 mice, PTZ 65 mg/kg i.p.): 0
Level III onset latency ([3]; mean ± SEM): 106 ± 12 s
Grade IV onset latency ([3]; mean ± SEM, no grade IV attack recorded as 900 s): 819 ± 81 s
Number of deaths ([3]; of 10 mice, PTZ 65 mg/kg i.p.): 0
Number of Grade IV cases ([3]; of 10 mice, PTZ 65 mg/kg i.p., 15 min observation): 1**

CC(=O)Oc1ccccc1C(=O)O [aspirin, reference compound]
Body temperature 2 hours after modeling ([4]; aspirin 300 mg/kg oral, 2 h after LPS 20 μg/kg i.p.): 36.9 ± 0.2 °C
Body temperature 4 hours after modeling ([4]; aspirin 300 mg/kg oral, 4 h after LPS 20 μg/kg i.p.): 37.0 ± 0.1 °C
Body temperature 6 hours after modeling ([4]; aspirin 300 mg/kg oral, 6 h after LPS 20 μg/kg i.p.): 36.9 ± 0.1 °C
Body temperature 8 hours after modeling ([4]; aspirin 300 mg/kg oral, 8 h after LPS 20 μg/kg i.p.): 36.9 ± 0.1 °C
Effect on increase in body temperature of model rats ([4]; aspirin 300 mg/kg, 2, 4, 6 and 8 hours after modeling, vs model group P<0.05): effectively inhibit the increase in body temperature
Body temperature 2 hours after modeling ([5]; aspirin 300 mg/kg oral, 2 h after 20% yeast s.c.): 36.5 ± 0.1 °C
Body temperature 4 hours after modeling ([5]; aspirin 300 mg/kg oral, 4 h after 20% yeast s.c.): 36.9 ± 0.1 °C
Body temperature 6 hours after modeling ([5]; aspirin 300 mg/kg oral, 6 h after 20% yeast s.c.): 37.0 ± 0.1 °C
Body temperature 8 hours after modeling ([5]; aspirin 300 mg/kg oral, 8 h after 20% yeast s.c.): 37.2 ± 0.1 °C
Effect on increase in body temperature of model rats ([5]; aspirin 300 mg/kg, 4, 6 and 8 hours after modeling, vs model group P<0.05): effectively inhibit the increase in body temperature
Frequency of writhing vs model group ([6]; Aspirin 300 mg/kg, P<0.05): reduce the frequency of writhing
Incubation period of writhing vs model group ([6]; Aspirin 300 mg/kg, P<0.05): significantly delay the incubation period of writhing
Number of twists [6, 8]: 16.7 ± 2.6 times
Writhing latency [6, 8]: 301.0 ± 30.4 s
